We go through one compound from article PMC7867136, “Anti-Infective and Anti-Inflammatory Mode of Action of Peptide 19-2.5” (International Journal of Molecular Sciences, 2021).

SMILES strings stand for the structures.

The assay concerns Salmonella minnesota strain R60 bacteria on human mononuclear cells. As to the kind of experiment: TNFα secretion by human mononuclear cells exposed to whole bacteria. The conditions noted are these: 10^6/ml Salmonella minnesota R60; antibiotics alone, or Pep19-2.5 added to ceftriaxone or ciprofloxacin; Figure 5. Type of assay: cell-based.

Description: Mononuclear cells (MNC) were isolated from heparinized blood samples obtained from healthy donors as described previously [1, 24]. […] For stimulation, 200 μL MNC (1 × 10^6 cells) in RPMI medium supplemented with PS/Glu2% (penicillin/streptomycin/glutamine, Biochrome, Berlin, Germany) plus AB serum (4%) was transferred into the wells of a 96-well culture plate.
The formulations to be tested for stimulation were preincubated for 30 min at 37 °C and added to the cultures at 20 μL per well. The cultures were incubated for 4 h at 37 °C with 5% CO2. Supernatants were collected after centrifugation of the culture plates for 10 min at 400× g and stored at 20 °C until immunological determination of tumor necrosis factor alpha (TNF-α), carried out with a sandwich enzyme-linked immunosorbent assay (ELISA) using a monoclonal antibody against TNF (BD Biosciences, Heidelberg, Germany) as described previously in detail [1]. In the case of the stimulation by the TNFα receptor, interleukin-8 in the supernatants was determined immunologically.

For the compound `CO/N=C(\C(=O)N[C@@H]1C(=O)N2C(C(=O)O)=C(CSc3nc(=O)c(=O)[nH]n3C)CS[C@H]12)c1csc(N)n1` [ceftriaxone], the “Influence on TNFα release from hMNC exposed to whole bacteria” value was “only marginally influence the cytokine release”.
